For this assay, the system named is Wolbachia pipientis. As to the kind of experiment: Anti-Wolbachia Cell-Based Screen. The assay is classed as functional. To be noted: for IC50: Wolbachia pipientis.

The results in this text go back to ChEMBL document CHEMBL3988442, “University of Dundee, Small-Polar-MMV Screening Library” (2021).

“And” between values parts separate entries of the source, which are not always exact repeats. Equal entries are not always repeated.

In the case of `COc1ccccc1OCCN(C)c1cc(C)nc(N)n1`, the IC50 (usually the midpoint of a concentration-inhibition curve) was above 10 µM. Take `Cc1ccc(C(=O)N2CCC3(CC2)CN(CCN(C)C)C(=O)O3)c(F)c1`: the pIC50 (as a rule, −log10 of the IC50, conventionally taken in molar units) was determined as 5.079 and the IC50 was above 10 µM. Molecule `Cc1nc(N2CCC3(CCOC3)C2)c2cc[nH]c2n1` (stereo unspecified) had a pIC50 of 5.537 and an IC50 of 2.38 µM. `Cc1c(CNCC(C)Oc2cccnc2)c2ccccc2n1CC(N)=O` (stereo unspecified) had an IC50 above 10 µM. Consider `CCc1cc(N(C)Cc2cc[nH]n2)n2nc(C)c(C)c2n1`, for which the pIC50 is given as 5.579 and half-maximal inhibition (IC50) required 4.79 µM. `Cn1ccnc(Nc2ccc3c(c2)CCN3C(=O)c2ccoc2)c1=O`: the pIC50 was 5.166 and 5.523.

For `Cc1cc(N(Cc2cccs2)C2CC2)n2nc(C(F)(F)F)nc2n1`, the pIC50 is 6.155 and 6.458.

Regarding `CN(C)C(=O)[C@H]1C[C@@H]2CN(S(=O)(=O)Cc3ccccc3)C[C@H]1O2`, the IC50 was above 10 µM.

Consider `CCN(CC)C(=O)c1ccc(Cl)c(NC(=O)c2cc[nH]n2)c1`, for which the pIC50 amounted to 5.355 and the IC50 is 3.96 µM. `Cc1csc(CCCNC(=O)NC2CC(=O)N(C(C)(C)C)C2)n1` (stereo unspecified) had an IC50 above 10 µM.

In turn, `CC(C)C(=O)Nc1ccc(C(O)Cn2nc(-c3cccs3)oc2=O)cc1` (stereo unspecified) had an IC50 above 10 µM. On the same count and under the same terms, the figure for `CC(CNC1CCN(c2ccccn2)CC1)Oc1ccc(F)cc1` (stereo unspecified) is above 10 µM; for `CC(C(=O)N1CCCN(Cc2cnn(C)c2)CC1)n1ccnc1` (stereo unspecified) it is above 10 µM. Consider `COc1ccc(C(C#N)NC(=O)Cc2ccc(F)c(F)c2)c(OC)c1` (stereo unspecified), for which the pIC50 amounted to 5.528 and the IC50 is 3 µM. `FC(F)(F)c1nc(NC2CCCCC2)c2ccccc2n1`: the pIC50 was 5.146 and 5.539.

`Cc1cc(C)n(CC2CCCN2C(=O)CCc2ccco2)n1` (stereo unspecified) gave an IC50 above 10 µM. Same read-out and setting: the figure for `CCOc1ncccc1C(=O)N1CCCC1c1c(C)nn(C)c1OC` (stereo unspecified) is above 10 µM; for `O=c1oc(-c2cccs2)nn1CC(O)c1ccc2c(c1)CCC2` (stereo unspecified) it is above 10 µM. For the molecule `Cc1nn(C)c(C)c1C1CCCN1Cc1nc2ccccc2o1` (stereo unspecified), the negative logarithm of the IC50 (pIC50) was determined as 5.128 and the IC50 was above 10 µM. With `Cc1nn(C)c2nc(N3CCCC3c3nccs3)sc12` (stereo unspecified), the pIC50 was found to be 5.818 and the IC50 was 1.82 µM.

`O=C(Nc1ccccn1)NC(CCCO)c1ccccc1` (stereo unspecified): the pIC50 was below 5 and the IC50 is 6.17 µM. As for `CCOCCCn1c(NC(=O)c2cnc(C)s2)nc2ccccc21`, the IC50 is above 10 µM. On to `Cc1nc2cc(-c3nccn3C)nn2c(N2CCCC2)c1C`, for which the pIC50 was below 5 and the IC50 is 9.95 µM. `O=C(NCCN1CCOCC1)N(CCCO)C1CCCc2ccccc21` (stereo unspecified) had an IC50 above 10 µM. `Cc1ccccc1CNC(=O)Cn1nc(-c2ccc(F)cc2)oc1=O` gave an IC50 above 10 µM.

As to `COCCCN1Cc2cccc(NC(=O)C(C)(C)C)c2C1`, the IC50 is above 10 µM. On the same count and under the same terms, the figure for `CN(CCc1ccccc1)Cc1cc(C(=O)N2CCN(C)C(=O)C2)no1` is above 10 µM; for `CCC(C)n1cnc(S(=O)(=O)N(Cc2cccnc2)C(C)C)c1` (stereo unspecified) it is above 10 µM. The molecule `Cc1c[nH]c(CN2CCOC(c3ccc(Cl)c(Cl)c3)C2)c(C)c1=O` (stereo unspecified) had a pIC50 of 5.368 and an IC50 of 3.83 µM.

For the molecule `Cc1nn(C)c2nc(N3CCCCC3c3nccs3)sc12` (stereo unspecified), the negative logarithm of the IC50 (pIC50) is reported as 7.075 and the IC50 was 0.156 µM. Molecule `Cc1cnn(CC2CCCCN2C(=O)c2ccc(CN(C)C)cc2)c1` (stereo unspecified) showed an IC50 above 10 µM. Molecule `COCc1noc(-c2ccc(N(C)Cc3ncccc3C)nc2)n1` gave a negative-log IC50 (pIC50) of 5.66 and an IC50 of 3.11 µM. As for `O=C(O)C(F)(F)F.O=C(O)c1c(-c2cccnc2)ncc2c1CCN(CC1CCOC1)C2` (stereo unspecified), the pIC50 is recorded as below 5 and the IC50 was 7.49 µM. Molecule `COc1cc(CNC(=O)c2c(C)noc2C)ccn1` gave an IC50 above 10 µM. Still for that read-out and setting: under `Cc1nn(C)c(C)c1C(=O)NCc1ccnc(OCC(F)(F)F)c1` stands above 10 µM; under `CC1CCCN1Cc1cccc(C(=O)Nc2ccc3c(c2)CCC3=O)c1` (stereo unspecified), above 10 µM. Molecule `CC(c1ccco1)N(C(=O)c1cc2c([nH]c1=O)CCCC2=O)C1CC1` (stereo unspecified) gave an IC50 above 10 µM. Regarding `Cc1n[nH]c(C)c1CCC(=O)N(C)Cc1cn[nH]c1-c1ccc(F)cc1`, the pIC50 amounted to 5.21 and the IC50 was 5.81 µM. Regarding `CCOc1nnc(CN2CCN(CCOC)CC2)s1`, the IC50 is above 10 µM.

Molecule `CC(C(=O)N1CCCN(Cc2ccc(C#N)cc2)CC1)n1cncn1` (stereo unspecified) gave an IC50 above 10 µM.

As to `Cc1ccc(CSc2nc(N)cc(NCCS(=O)(=O)N(C)C)n2)cc1`, the pIC50 is reported as 5.214 and inhibition was half-maximal at 4.21 µM (IC50). As to `Cc1noc(-c2ccnc(Oc3ccc(CN4CCCC4)cc3C)c2)n1`, the pIC50 is 5.704 and 5.368. `CC(C)Cn1ncc2cc(C(=O)N(C)Cc3cccc(O)c3)cnc21` showed an IC50 above 10 µM. On to `Cc1nn(C)c2nc(N3CCCCC3c3cccnc3)sc12` (stereo unspecified), for which the pIC50 turned out to be 6.07 and the 50% inhibitory concentration (IC50) is 1.24 µM. The like results for `Cc1nn(C)c(C)c1CN(C)c1nc(C2CC2)nc2c(C)nn(C)c12` were, in that order, 5.529 and 2.65 µM. The like results for `CC(C)c1cc(CSCCC(=O)O)no1` were, in that order, 5.282 and 3.09 µM. Regarding `CCn1cc(NC(=O)c2cccc(CN3C[C@@H](C)O[C@@H](C)C3)c2)nn1`, the pIC50 is reported as below 5 and the IC50 was 8.23 µM.

`CC(=O)NC(C)c1ccc(OCC2CC2)c(F)c1` (stereo unspecified) gave a pIC50 of 5.914 and an IC50 of 1.47 µM. The like results for `CC(C)N1c2sc(-c3ccsc3)nc2CC1C(=O)NC1CCCC1` (stereo unspecified) were, in that order, 5.095 and 7.14 µM. Consider `COc1c(CNCC(O)COc2ccc3c(c2)OCO3)c(C)nn1C` (stereo unspecified), for which the IC50 is above 10 µM. The same measure, in the same setting: under `CN(C)c1ncc(I)c(C2CCCCN2S(C)(=O)=O)n1` (stereo unspecified) stands above 10 µM.

`Cc1ccc(CSc2nc(N)cc(NCCC(=O)N3CCCC3)n2)cc1` showed a pIC50 of 5.181 and an IC50 of 4.89 µM. In turn, `CC(C)C(C(=O)N1CCCN(Cc2nccn2C)CC1)N1CCCC1` (stereo unspecified) gave an IC50 above 10 µM.

Molecule `CNC(=O)c1cn[nH]c1C1(C)CCCN(Cc2nccn2C(C)C)C1` (stereo unspecified) gave an IC50 above 10 µM. Same read-out and setting: the figure for `CN1CCC/C1=N\S(=O)(=O)c1ccc(NC(=O)c2ccc(Cl)s2)cc1` is above 10 µM; for `O=C(CCc1ccccc1Cl)NS(=O)(=O)c1ccc2c(c1)OCCO2` it is above 10 µM. Consider `O=C(CNC(=O)c1ccc(Cl)cc1)Nc1nccs1`, for which the pIC50 was 5.243 and 3.56 µM corresponded to half-maximal inhibition (IC50). In turn, `CSc1ccc(NCc2csc(C)n2)cc1F` had a pIC50 of 5.126 and an IC50 of 5.53 µM.

The molecule `CCCS(=O)(=O)N1CCN(c2cc(-n3nc(C)cc3C)nc(C)n2)CC1` gave an IC50 above 10 µM.

On to `O=C(NCCCn1cncn1)N1CCCCCC1`, for which the IC50 is above 10 µM. In the case of `Fc1ccc(N2CCCN(Cc3ccc(-c4cc[nH]n4)o3)CC2)cc1`, the pIC50 was 5.26 and it took 6.44 µM to reach half-maximal inhibition (IC50). Regarding `Cc1cc2nc(C(C)C)cc(NCC(c3ccccn3)N(C)C)n2n1` (stereo unspecified), the pIC50 worked out at 5.809 and the IC50 was 1.75 µM. Turning to `CCOCCCn1c(NC(=O)c2cnc(C)cn2)nc2ccccc21`, the pIC50 stood at 5.233 and the half-inhibitory concentration (IC50) was 5.75 µM. In the case of `c1ccc(-c2nc(CN3CCCC3Cn3cncn3)no2)cc1` (stereo unspecified), the IC50 was above 10 µM.
